Test results as given in patent US7074743B1, “Herbicidal composition comprising 4-iodo-2-[3-(4-methoxy-6-methyl-1,3,5-triazin-2-yl)ureidosulfonyl]benzoic esters” (priority 1995, dated 2006).

Tests used:
Assay type in all cases: in vivo
Triticum aestivum = assay: Damage to crop plant TRZAW, visual scoring vs untreated
Description: (§1) The examples given below were performed in the greenhouse and, in some cases, in field trials.
(§2) The herbicides, or combinations, were applied in cereals after the weeds had emerged naturally using plot sprayers. After application, the results, such as damage to the crop plants and effect on broad-leaved weeds/grass weeds were assessed by means of visual scoring. The herbicidal action was assessed qualitatively and quantitatively by comparing untreated and treated plots on the basis of the effect on plant growth and the development of chloroses and necroses down to the complete destruction of the weeds (0–100%). The application was effected when the crop plants and weeds were in the 2–4 leaf stage. The test was evaluated approximately 4 weeks after application.
(§3) In the greenhouse experiments, the crop plants and broadleaved weeds/grass weeds were grown in No. 13 pots and treated in the 2–4 leaf stage. The pots were subsequently placed in the greenhouse under good growth conditions (temperature, atmospheric humidity, water supply).
(§4) The assessments were carried out similarly to those in the field trials, i.e. visual scoring of the treated plants in comparison with untreated control variants. These assessments were carried out 3 weeks after applying the test preparations and their combinations. The experiments had been set up in two replications.

Apera spica venti = assay: Herbicidal action on APESV, visual scoring vs untreated, post-emergence 2-4 leaf stage; details: Table 1
Description: as §1, §2, §3, §4
(§5) To assess the combination effects, the activities of the individual components were added and compared with the activity of the mixtures in equal doses. It was frequently observed that the efficacies of the combinations exceeded the total of the individual activities.
(§6) In cases with less clear effects, the expected value was calculated using Colby's formula and compared with the empirically determined result. The calculated efficacy of a combination which is expected in theory is determined is using S.R. Colby's formula: “Calculation of synergistic and antagonistic responses of herbicide combinations”, Weeds 15 (1967), pages 20 to 22.
(§7) [formula] where • X=% damage caused by herbicide A at a rate of ×kg a.i./ha; • Y=% damage caused by herbicide B at a rate of y kg a.i./ha; • Z=% damage caused by a further herbicide C at a rate of z kg a.i./ha; • E=expected value, i.e. expected damage caused by herbicides A+B (or A+B+C) at x+y (or x+y+z) kg a.i./ha.
(§8) Synergistic effects were assumed to be when the empirical value exceeded the expected value. In the case of combinations with individual components with the same active substances, comparisons via the total formula were also possible.

Phalaris canariensis = assay: Herbicidal action on PHACA, visual scoring vs untreated, post-emergence 2-4 leaf stage (greenhouse / field trials)
Description: as §1, §2, §3, §4, §5, §6, §7, §8

Lolium multiflorum = assay: Herbicidal action on LOLMU, visual scoring vs untreated, post-emergence 2-4 leaf stage
Description: as §1, §2, §3, §4, §5, §6, §7, §8

Echinochloa crus galli = assay: Herbicidal action on ECHCR, visual scoring vs untreated, post-emergence 2-4 leaf stage
Description: as §1, §2, §3, §4, §5, §6, §7, §8

Zea mays = assay: Damage to crop plant ZEAMA, visual scoring vs untreated
Description: as §1, §2, §3, §4

Fallopia convolvulus = assay: Herbicidal action on FALCO, visual scoring vs untreated, post-emergence 2-4 leaf stage
Description: as §1, §2, §3, §4, §5, §6, §7, §8

Centaurea cyanus = assay: Herbicidal action on CENCY, visual scoring vs untreated, post-emergence 2-4 leaf stage
Description: as §1, §2, §3, §4, §5, §6, §7, §8

Secale cereale = assay: Damage to crop plant SECCW, visual scoring vs untreated
Description: as §1, §2, §3, §4

Gallium aparine = assay: Herbicidal action on GALAP, visual scoring vs untreated, post-emergence 2-4 leaf stage; details: Table 7
Description: as §1, §2, §3, §4, §5, §6, §7, §8

Viola arvensis = assay: Herbicidal action on VIOAR, visual scoring vs untreated, post-emergence 2-4 leaf stage; details: Table 7
Description: as §1, §2, §3, §4, §5, §6, §7, §8

Compound: COC(=O)C(C)Oc1ccc(Oc2ccc(Cl)cc2Cl)cc1 (racemic) [B3), diclofop-methyl]
- TRZAW % damage (Triticum aestivum; Table 1, 225 g of a.i./ha): 0%
- TRZAW % damage (Triticum aestivum; Table 1, 450 g of a.i./ha): 0%
- TRZAW % damage (Triticum aestivum; Table 1, 900 g of a.i./ha): 0%
- APESV % control (Apera spica venti; 225 g of a.i./ha): 0%
- APESV % control (Apera spica venti; 450 g of a.i./ha): 0%
- APESV % control (Apera spica venti; 900 g of a.i./ha): 8%
- PHACA % control (Phalaris canariensis; Table 1, 225 g of a.i./ha): 0%
- PHACA % control (Phalaris canariensis; Table 1, 450 g of a.i./ha): 0%
- PHACA % control (Phalaris canariensis; Table 1, 900 g of a.i./ha): 0%

Compound: CC(C)c1ccc(NC(=O)N(C)C)cc1 [B2), 3-(4-isopropylphenyl)-1,1-dimethylurea]
- TRZAW % damage (Triticum aestivum; in vivo): 0%
- LOLMU % control (Lolium multiflorum; Table 3, 375 g of a.i./ha): 0%
- LOLMU % control (Lolium multiflorum; Table 3, 750 g of a.i./ha): 0%
- LOLMU % control (Lolium multiflorum; Table 3, 1500 g of a.i./ha): 0%
- PHACA % control (Phalaris canariensis; Table 3, 375 g of a.i./ha): 0%
- PHACA % control (Phalaris canariensis; Table 3, 750 g of a.i./ha): 0%
- PHACA % control (Phalaris canariensis; Table 3, 1500 g of a.i./ha): 50%

Compound: COc1cc(OC)nc(NC(=O)NS(=O)(=O)c2ncccc2C(=O)N(C)C)n1 [B13), 1-(4,6-dimethoxypyrimidin-2-yl)-3-(3-dimethylcarbamoyl-2-pyridylsulfonyl)urea]
- ECHCR % control (Echinochloa crus galli; Table 4, 15 g of a.i./ha): 0%
- ECHCR % control (Echinochloa crus galli; Table 4, 30 g of a.i./ha): 73%
- ECHCR % control (Echinochloa crus galli; Table 4, 60 g of a.i./ha): 75%
- ZEAMA % damage (Zea mays; Table 4, 15 g of a.i./ha): 0%
- ZEAMA % damage (Zea mays; Table 4, 30 g of a.i./ha): 0%
- ZEAMA % damage (Zea mays; Table 4, 60 g of a.i./ha): 2%

Compound: CCS(=O)(=O)c1cccnc1S(=O)(=O)NC(=O)Nc1nc(OC)cc(OC)n1 [B14), 1-(4,6-dimethoxypyrimidin-2-yl)-3-(3-ethylsulfonyl-2-pyridylsulfonyl) urea]
- ECHCR % control (Echinochloa crus galli; Table 4, 5 g of a.i./ha): 15%
- ECHCR % control (Echinochloa crus galli; Table 4, 10 g of a.i./ha): 60%
- ECHCR % control (Echinochloa crus galli; Table 4, 20 g of a.i./ha): 85%

Compound: Cc1cc(Cl)ccc1O[C@H](C)C(=O)O [B16), (R)-2-(4-chloro-o-tolyloxy)propionic acid]
- FALCO % control (Fallopia convolvulus; Table 5, 125 g of a.i./ha): 0%
- FALCO % control (Fallopia convolvulus; Table 5, 250 g of a.i./ha): 15%
- FALCO % control (Fallopia convolvulus; Table 5, 500 g of a.i./ha): 55%
- FALCO % control (Fallopia convolvulus; Table 5, 1000 g of a.i./ha): 68%
- TRZAW % damage (Triticum aestivum; Table 5, 125 g of a.i./ha): 0%
- TRZAW % damage (Triticum aestivum; Table 5, 250 g of a.i./ha): 0%
- TRZAW % damage (Triticum aestivum; Table 5, 500 g of a.i./ha): 0%
- TRZAW % damage (Triticum aestivum; Table 5, 1000 g of a.i./ha): 0%
- CENCY % control (Centaurea cyanus; Table 6, 600 g of a.i./ha): 30%
- CENCY % control (Centaurea cyanus; Table 6, 2500 g of a.i./ha): 70%
- SECCW % damage (Secale cereale; Table 6, 600 g of a.i./ha): 0%
- SECCW % damage (Secale cereale; Table 6, 2500 g of a.i./ha): 0%

Compound: Cc1cc(Cl)ccc1OCC(=O)O [B17), (4-chloro-2-methylphenoxy) acetic acid]
- FALCO % control (Fallopia convolvulus; Table 5, 250 g of a.i./ha): 0%
- FALCO % control (Fallopia convolvulus; Table 5, 500 g of a.i./ha): 68%
- FALCO % control (Fallopia convolvulus; Table 5, 1000 g of a.i./ha): 75%
- TRZAW % damage (Triticum aestivum; Table 5, 250 g of a.i./ha): 0%

Compound: COc1c(Cl)ccc(Cl)c1C(=O)O [B20), 3,6-dichloro-o-anisic acid]
- LOLMU % control (Lolium multiflorum; Table 5, 50 g of a.i./ha): 5%
- LOLMU % control (Lolium multiflorum; Table 5, 100 g of a.i./ha): 10%
- LOLMU % control (Lolium multiflorum; Table 5, 200 g of a.i./ha): 18%
- LOLMU % control (Lolium multiflorum; Table 5, 400 g of a.i./ha): 40%

Compound: Nc1c(Cl)c(F)nc(OCC(=O)O)c1Cl [B21), 4-amino-3,5-dichloro-6-fluoro-2-pyridyloxyacetic acid]
- FALCO % control (Fallopia convolvulus; Table 5, 50 g of a.i./ha): 73%
- FALCO % control (Fallopia convolvulus; Table 5, 100 g of a.i./ha): 80%
- FALCO % control (Fallopia convolvulus; Table 5, 200 g of a.i./ha): 95%

Compound: N#Cc1cc(I)c(O)c(I)c1 [B22), 4-hydroxy-3,5-di-iodobenzonitrile]
- TRZAW % damage (Triticum aestivum; in vivo): 0%
- GALAP % control (Gallium aparine; 62.5 g of a.i./ha): 0%
- GALAP % control (Gallium aparine; 125 g of a.i./ha): 3%
- GALAP % control (Gallium aparine; 250 g of a.i./ha): 10%
- GALAP % control (Gallium aparine; 500 g of a.i./ha): 18%

Compound: CCOC(=O)COC(=O)c1cc(Oc2ccc(C(F)(F)F)cc2Cl)ccc1[N+](=O)[O-] [B25), fluoroglycofen-ethyl]
- TRZAW % damage (Triticum aestivum; in vivo): 0%
- VIOAR % control (Viola arvensis; 4 g of a.i./ha): 3%
- VIOAR % control (Viola arvensis; 8 g of a.i./ha): 18%
- VIOAR % control (Viola arvensis; 15 g of a.i./ha): 38%
- VIOAR % control (Viola arvensis; 30 g of a.i./ha): 62%

Compound: O=C(Nc1ccc(F)cc1F)c1cccnc1Oc1cccc(C(F)(F)F)c1 [B32), 2′ 4′-difluoro-2-(α,α,α-trifluoro-m-tolyloxy)nicotinanilide]
- TRZAW % damage (Triticum aestivum; Table 7, 13 g of a.i./ha): 0%
- TRZAW % damage (Triticum aestivum; Table 7, 25 g of a.i./ha): 0%
- TRZAW % damage (Triticum aestivum; Table 7, 50 g of a.i./ha): 0%
- TRZAW % damage (Triticum aestivum; Table 7, 100 g of a.i./ha): 0%
- GALAP % control (Gallium aparine; 13 g of a.i./ha): 0%
- GALAP % control (Gallium aparine; 25 g of a.i./ha): 0%
- GALAP % control (Gallium aparine; 50 g of a.i./ha): 5%
- GALAP % control (Gallium aparine; 100 g of a.i./ha): 5%

Compound: CCNc1nc(Cl)nc(NC(C)C)n1 [B36), 6-chloro-N-^2-ethyl-N-4-isopropyl-1,3,5-triazine-2,4-diamine]
- ECHCR % control (Echinochloa crus galli; Table 8, 375 g of a.i./ha): 0%
- ECHCR % control (Echinochloa crus galli; Table 8, 750 g of a.i./ha): 0%
- ECHCR % control (Echinochloa crus galli; Table 8, 1500 g of a.i./ha): 3%
- ECHCR % control (Echinochloa crus galli; Table 8, 3000 g of a.i./ha): 3%
- ZEAMA % damage (Zea mays; Table 8, 375 g of a.i./ha): 0%
- ZEAMA % damage (Zea mays; Table 8, 750 g of a.i./ha): 0%
- ZEAMA % damage (Zea mays; Table 8, 1500 g of a.i./ha): 0%
- ZEAMA % damage (Zea mays; Table 8, 3000 g of a.i./ha): 0%

Compound: COc1cc(OC)nc(NC(=O)NS(=O)(=O)N(C)S(C)(=O)=O)n1 [B40), 1-(4,6-dimethoxypyrimidin-2-yl)-3-mesyl (methyl)-sulfamoylurea]
- CENCY % control (Centaurea cyanus; Table 10, 20 g of a.i./ha): 25%
- SECCW % damage (Secale cereale; Table 10, 20 g of a.i./ha): 0%

Compound: COC(=O)c1ccccc1S(=O)(=O)NC(=O)Nc1nc(C)nc(OC)n1 [B41), metsulfuron-methyl]
- TRZAW % damage (Triticum aestivum; Triticum aestivum, in vivo): 0%
- TRZAW % damage (Triticum aestivum; in vivo): 0%
- CENCY % control (Centaurea cyanus; Table 9, 1 g of a.i./ha): 0%
- CENCY % control (Centaurea cyanus; Table 9, 3 g of a.i./ha): 0%
- CENCY % control (Centaurea cyanus; Table 9, 5 g of a.i./ha): 0%
- CENCY % control (Centaurea cyanus; Table 9, 10 g of a.i./ha): 0%

Compound: COC(=O)c1ccccc1S(=O)(=O)NC(=O)N(C)c1nc(C)nc(OC)n1 [B42), tribenuron-methyl]
- FALCO % control (Fallopia convolvulus; Table 9, 5 g of a.i./ha): 88%
- FALCO % control (Fallopia convolvulus; Table 9, 10 g of a.i./ha): 93%
- FALCO % control (Fallopia convolvulus; Table 9, 20 g of a.i./ha): 95%
- FALCO % control (Fallopia convolvulus; Table 9, 40 g of a.i./ha): 97%
- TRZAW % damage (Triticum aestivum; Triticum aestivum, in vivo): 0%

Compound: imazamethabenz-methyl [B8)]
- LOLMU % control (Lolium multiflorum; Table 3, 375 g of a.i./ha): 0%
- LOLMU % control (Lolium multiflorum; Table 3, 750 g of a.i./ha): 0%
- LOLMU % control (Lolium multiflorum; Table 3, 1500 g of a.i./ha): 20%
- PHACA % control (Phalaris canariensis; Table 3, 375 g of a.i./ha): 0%
- PHACA % control (Phalaris canariensis; Table 3, 750 g of a.i./ha): 0%
- PHACA % control (Phalaris canariensis; Table 3, 1500 g of a.i./ha): 13%
